Holding throughout (assay type): cell-based
In experiment [1] the test system is RPE1 (human immortalized retinal pigment epithelial) cell line. Put plainly: MTT assay on normal cells for safety/selectivity. To be noted: RPE-1, read-out: IC50, μM ± SD, RPE1. The procedure:
(§1) Antiproliferation properties against normal RPE1 (human immortalized retinal pigment epithelial) cell line were also considered for safety/selectivity index (SI) determination of each respective agent synthesized (Table 1, Supplementary Figs. S61–S64). […]
(§2) was aspirated, fresh complete medium was added and cells were incubated with different concentrations of the tested compound to give a final concentration of [50, 25, 12.5 and 6.25 μM “in addition to 3.125, 1.56 and 0.78 μM in case of high potent a nalogs”). 0.5% DMSO was used as a negative control. Triplicate wells were prepared for each individual dose. After 72 h of incubation, medium was aspirated, 40 μl MTT salt (2.5 mg ml -1) was added to each well and incubated for further 4 h at 37 °C. To stop the reaction and dissolve the formed crystals, 150 μl of 10% sodium dodecyl sulfate (SDS) in deionized water was added to each well and incubated overnight at 37 °C. The absorbance was then measured at 570 nm and a reference wavelength of 595 nm.
(§3) Data were collected as mean values for experiments performed in triplicates for each individual dose which had been measured by MTT assay. Control experiments did […]
(§4) The cell surviving fraction was calculated according to the following equation.
(§5) Surviving fraction = Opticaldensity(O.D.)oftreatedcells
(§6) The agents synthesized were also tested against RPE1 (normal human immortalized retinal pigment epithelial cell line) cell (in DMEM -F12 medium) to determine the toxicity/selectivity towards normal cells relative to the cancer cell lines […]
(§7) The IC50 (concentration required to produce 50% inhibition of cell growth compared to the control experiment) was determined using Graph-Pad PRISM version-5 software. Statistical calculations for determination of the mean and standard division (SD) values were determined by SPSS 16 so ftware. The observed anti-proliferative properties are presented in Table 1 ( Supplementary Figs. S61‒S64). […]
For orientation: Tetrazolium dyes change colour on reduction, which living cells bring about.

The test system of experiment [2] is PaCa2 (pancreatic) carcinoma cell line. As to the kind of experiment: MTT antiproliferation assay, PaCa2.
Text: as §1
(§8) All the biological studies conducted obey the standards and approved by the Research Ethics Committee, National Research Centre, Egypt (associated with project ID:
(§9) Antiproliferation properties
(§10) The synthesized compounds 12a‒j were screened for their antiproliferation properties against HCT116 (colon), MCF7 (breast) and PaCa2 (pancreatic) cancer cell lines by the standard mitochondrial dependent reduction of yellow MTT [3 -(4,5-dimethylthiazol-2- […]
(§11) considered as standard reference/drug. Cells were suspended in DMEM medium for MCF7, PaCa-2 and McCoy’s 5A for HCT116 in addition to 1% antibiotic–antimycotic mixture (10000 μg ml-1 potassium penicillin, 10000 μg ml-1 streptomycin sulfate and 25 μg ml-1 amphotericin B), 10% fetal bovine serum and 1% L-glutamine at 37 °C, under 5% CO2 and 95% humidity. Cells were seeded at concentration of 30000 cells per well in fresh complete growth medium in 96-well tissue culture microtiter plates for 24 h. Media […]
as §2, §3, §4, §5, §6, §7

Experiment [3] relates to HCT116 (colon) carcinoma cell line. As to the kind of experiment: MTT antiproliferation assay, HCT116.
Text: as §1, §8, §9, §10, §11, §2, §3, §4, §5, §6, §7

Experiment [4] concerns MCF7 (breast) carcinoma cell line. As to the kind of experiment: MTT antiproliferation assay, MCF7.
Text: as §1, §8, §9, §10, §11, §2, §3, §4, §5, §6, §7

The target of another experiment is T1, VEGFR-2 (Homo sapiens, UniProt P35968).
T1 construct: lysed cells; endogenous in cells
As to the kind of experiment: VEGFR-2 inhibitory properties by western blotting. How it is done:
VEGFR-2 inhibitory properties […]
standard/drug) was determined at 10 μM by the western blotting technique obeying the manufacturer’s instruction (Santa Cruz Biotechnology, Inc .).5
Protein extraction procedure
The ReadyPrepTM protein extraction kit (total protein) provided by Bio-Rad Inc.
(Catalog #163-2086) employed by the manufacturer, was added to each sample of the lysed cells. Bradford Protein Assay Kit (SK3041) for quantitative protein analysis was provided by Bio-basic Inc. (Markham Ontario L3R 8T4 Canada). A Bradford assay was performed according to manufacturer’s instructions to determine protein concentration in each sample. 20 μg protein concentration of each sample was then loaded with an equal volume of 2x Laemmli sample buffer containing 4% SDS, 10% 2-mercaptoehtanol, 20% glycerol, 0.004% bromophenol blue and 0.125 M Tris HCl. The pH was checked and brought to 6.8. Each previous mixture was boiled at 95°C for 5 min to ensure denaturation of protein before loading on polyacrylamide gel electrophoresis.
Protein separation by electrophoresis
Samples were separated on a polyacrylamide gel; the procedure was abbreviated as SDS-PAGE form Sodium Dodecyl Sulfate PolyAcrylamide Gel Electrophoresis, which is a standard technique for separating proteins according to their molecular weight.
Polyacrylamide gels were performed using TGX Stain-Free™ FastCast™ Acrylamide Kit (SDS-PAGE), which was provided by Bio-Rad Laboratories inc Cat # 161-0181. The SDS-PAGE TGX Stain-Free FastCast was prepared according to manufacturer’s […]
Protein blotting (transfer of proteins from the gel to the membrane)
The gel was assembled in transfer sandwich from below to above (filter paper, PVDF membrane, gel and filter paper). The sandwich was placed in the transfer tank with 1x transfer buffer, which is composed of 25 mM Tris and 190 mM glycine and 20% methanol. Then, the blot was run for 7 min . at 25 V to allow protein bands transfer from gel to membrane using BioRad Trans-Blot Turbo.
The membrane was blocked in tris -buffered saline with Tween 20 (TBST) buffer and 3% bovine serum albumin (BSA) at room temperature for 1 hr. The components of blocking […]
buffer were as follow; 20 mM Tris pH 7.5, 150 mM NaCl, 0.1% Tween 20 and 3% bovine serum albumin (BSA).
Incubation with the primary antibody
Primary antibody of VEGFR2 was purchased. Primary antibody was diluted in TBST according to manufactured instructions.

Results on 1 compound are retold here after article PMC11699130, “Design and synthesis of antiproliferative 2-oxoindolin-3-ylidenes incorporating urea function with potential VEGFR-2 inhibitory properties” (Scientific Reports, 2025).

T1 sequence (P35968 20-1356): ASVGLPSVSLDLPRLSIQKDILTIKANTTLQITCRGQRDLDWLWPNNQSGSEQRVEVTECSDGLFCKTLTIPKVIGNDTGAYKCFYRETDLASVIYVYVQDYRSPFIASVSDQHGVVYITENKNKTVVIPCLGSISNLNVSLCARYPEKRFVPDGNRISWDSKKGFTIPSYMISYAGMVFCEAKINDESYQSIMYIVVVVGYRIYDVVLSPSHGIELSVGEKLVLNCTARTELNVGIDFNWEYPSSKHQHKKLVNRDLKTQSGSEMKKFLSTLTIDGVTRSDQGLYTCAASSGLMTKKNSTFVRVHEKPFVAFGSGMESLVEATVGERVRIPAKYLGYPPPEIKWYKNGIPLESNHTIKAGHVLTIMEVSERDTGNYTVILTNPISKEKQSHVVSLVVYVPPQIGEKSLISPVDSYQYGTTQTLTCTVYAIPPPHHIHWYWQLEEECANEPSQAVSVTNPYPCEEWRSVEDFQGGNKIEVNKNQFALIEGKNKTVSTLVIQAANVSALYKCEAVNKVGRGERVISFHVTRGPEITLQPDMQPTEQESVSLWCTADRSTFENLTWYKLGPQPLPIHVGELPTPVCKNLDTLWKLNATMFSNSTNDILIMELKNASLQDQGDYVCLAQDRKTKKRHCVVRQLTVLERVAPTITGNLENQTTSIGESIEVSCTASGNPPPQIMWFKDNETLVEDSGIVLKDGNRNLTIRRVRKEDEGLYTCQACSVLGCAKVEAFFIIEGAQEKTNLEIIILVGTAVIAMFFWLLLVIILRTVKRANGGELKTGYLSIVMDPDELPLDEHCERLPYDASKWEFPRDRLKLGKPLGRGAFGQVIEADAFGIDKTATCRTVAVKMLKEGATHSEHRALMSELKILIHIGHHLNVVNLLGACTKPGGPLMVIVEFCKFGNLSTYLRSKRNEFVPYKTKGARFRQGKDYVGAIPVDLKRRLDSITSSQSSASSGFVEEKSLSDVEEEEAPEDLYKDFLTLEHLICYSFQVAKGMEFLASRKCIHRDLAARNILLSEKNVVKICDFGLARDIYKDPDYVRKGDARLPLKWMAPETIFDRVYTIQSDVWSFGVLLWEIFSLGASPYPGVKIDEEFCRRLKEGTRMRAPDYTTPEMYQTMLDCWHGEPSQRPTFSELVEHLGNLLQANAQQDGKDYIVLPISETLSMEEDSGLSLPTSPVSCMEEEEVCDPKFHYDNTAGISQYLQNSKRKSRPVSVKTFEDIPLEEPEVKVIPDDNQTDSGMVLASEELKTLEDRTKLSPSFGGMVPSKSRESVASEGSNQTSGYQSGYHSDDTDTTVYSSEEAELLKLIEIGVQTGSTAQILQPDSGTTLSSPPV

In the case of `COc1ccc2c(c1)/C(=C\C(=O)c1ccc(NC(=O)Nc3ccccc3)cc1)C(=O)N2` [Compound 12j, (E)-1-{4-[2-(5-Methoxy-2-oxoindolin-3-ylidene)acetyl]phenyl}-3-phenylurea], the IC50 – broadly, the concentration that inhibits the measured activity by half – in experiment [1] amounted to 8.6 ± 0.334 µM; in experiment [2] (PaCa-2, MTT, 72 h incubation, PaCa2 (pancreatic), read-out: IC50, μM ± SD, PaCa2), 4.49 ± 0.785 µM; in experiment [3] (Homo sapiens, HCT-116, MTT, 72 h incubation, HCT116 (colon), read-out: IC50, μM ± SD, HCT116), 6.15 ± 0.539 µM; in experiment [4] (Homo sapiens, MTT, 72 h incubation, MCF7 (breast), read-out: IC50, μM ± SD, MCF7), 1.69 ± 0.067 µM. In experiment [2] (in brackets after IC50, normal RPE1 relative to PaCa2), the “SI (safety/selectivity index), PaCa2” value turned out to be 1.917. In addition, the “SI (safety/selectivity index), HCT116” value in experiment [3] (in brackets after IC50, normal RPE1 relative to HCT116) was 1.400. In experiment [4] (in brackets after IC50, normal RPE1 relative to MCF7), the “SI (safety/selectivity index), MCF7” value amounted to 5.090. Further, the “Relative quantification (RQ)” value at VEGFR-2 (VEGFR-2 western blot band, normalised to beta actin, at 10 μM, control RQ 3.290) amounted to 0.678. For the same compound, the inhibition – broadly, how much of the control response was suppressed – at 10 µM at VEGFR-2 (western blotting, read-out: % Inhibition against VEGFR-2) turned out to be 79.4%.
